In ChEMBL document CHEMBL1629642, “In vitro efficacy of ST246 against smallpox and monkeypox” (Antimicrob Agents Chemother, 2009):
The source made the active and inactive calls. No cut-off for these calls is given here.

Assays:
Monkeypox virus [1] = assay: Antiviral activity against Monkeypox virus V77-I-823 infected in african green monkey BSC-40 cells assessed as reduction in virus-induced cytopathic effect; format: functional, organism-based; conditions: V77-I-823, BSC-40
Variola virus [2] = assay: microbe, parasite or virus in culture; conditions: SOM77-ali, BSC-40
Variola virus [3] = assay: Antiviral activity against Variola virus SOM77-ali infected in african green monkey BSC-40 cells at 0.005 uM assessed as reduction in virus-induced cytopathic effect; format: functional, organism-based
Variola virus [4] = assay: Antiviral activity against Variola virus SLN68-258 infected in african green monkey BSC-40 cells at 0.005 uM assessed as reduction in virus-induced cytopathic effect; format: functional, organism-based
Variola virus [5] = assay: Antiviral activity against Variola virus BSH74-sol infected in african green monkey BSC-40 cells at 0.005 uM assessed as reduction in virus-induced cytopathic effect; format: functional, organism-based
Variola virus [6] = assay: Antiviral activity against Variola virus NEP73-175 infected in african green monkey BSC-40 cells at 0.005 uM uM by IHC staining-based plaque reduction assay; format: functional, organism-based
Monkeypox virus [7] = assay: Antiviral activity against Monkeypox virus 2003-USA-039 infected in african green monkey BSC-40 cells at 0.015 uM by IHC staining-based comet tail reduction assay; format: functional, organism-based
Variola virus [8] = assay: Antiviral activity against Variola virus SOM77-ali infected in african green monkey BSC-40 cells at 0.05 to 5 uM assessed as reduction in virus-induced cytopathic effect; format: functional, organism-based
Monkeypox virus [9] = assay: Antiviral activity against Monkeypox virus 2003-USA-039 infected in african green monkey BSC-40 cells assessed as reduction in virus-induced cytopathic effect at 0.05 to 5 uM; format: functional, organism-based
Variola virus [10] = assay: Antiviral activity against Variola virus SLN68-258 infected in african green monkey BSC-40 cells at 0.005 uM by IHC staining-based comet tail reduction assay; format: functional, organism-based
Variola virus [11] = assay: Antiviral activity against Variola virus BRZ66-39 infected in african green monkey BSC-40 cells at 0.015 uM assessed as reduction in virus-induced cytopathic effect; format: functional, organism-based
Variola virus [12] = assay: Antiviral activity against Variola virus SOM77-ali infected in african green monkey BSC-40 cells at 0.015 uM assessed as reduction in virus-induced cytopathic effect; format: functional, organism-based
Variola virus [13] = assay: Antiviral activity against Variola virus BRZ66-39 infected in african green monkey BSC-40 cells at 0.05 to 5 uM assessed as reduction in virus-induced cytopathic effect; format: functional, organism-based
Variola virus [14] = assay: Antiviral activity against Variola virus SUD47-juba infected in african green monkey BSC-40 cells assessed as reduction in viral plaque formation at 0.015 uM uM by IHC staining-based plaque reduction assay; format: functional
Monkeypox virus [15] = assay: Antiviral activity against Monkeypox virus V1979-I-005 infected in african green monkey BSC-40 cells assessed as reduction in virus-induced cytopathic effect at 0.05 to 5 uM; format: functional, organism-based
Monkeypox virus [16] = assay: Antiviral activity against Monkeypox virus V77-I-823 infected in african green monkey BSC-40 cells assessed as reduction in viral plaque formation at 0.015 uM uM by IHC staining-based plaque reduction assay; format: functional
Camelpox virus = assay: Antiviral activity against Camelpox virus infected in african green monkey Vero cells assessed as reduction in virus-induced cytopathic effect; format: functional, organism-based
Variola virus [17] = assay: microbe, parasite or virus in culture; conditions: NEP73-175, BSC-40
Monkeypox virus [18] = assay: Antiviral activity against Monkeypox virus 2003-USA-039 infected in african green monkey BSC-40 cells at 0.005 uM by IHC staining-based comet tail reduction assay; format: functional, organism-based
Variola virus [19] = assay: Antiviral activity against Variola virus SUD47-juba infected in african green monkey BSC-40 cells at 0.005 uM by IHC staining-based comet tail reduction assay; format: functional, organism-based
Variola virus [20] = assay: Antiviral activity against Variola virus BSH74-sol infected in african green monkey BSC-40 cells at 0.015 uM by IHC staining-based comet tail reduction assay; format: functional, organism-based
Variola virus [21] = assay: Antiviral activity against Variola virus SOM77-ali infected in african green monkey BSC-40 cells at 0.005 uM uM by IHC staining-based plaque reduction assay; format: functional, organism-based
Monkeypox virus [22] = assay: Antiviral activity against Monkeypox virus V78-I-3945 infected in african green monkey BSC-40 cells assessed as reduction in virus-induced cytopathic effect at 0.05 to 5 uM; format: functional, organism-based
Monkeypox virus [23] = assay: Antiviral activity against Monkeypox virus V77-I-823 infected in african green monkey BSC-40 cells at 0.005 uM uM by IHC staining-based plaque reduction assay; format: functional, organism-based
Variola virus [24] = assay: Antiviral activity against Variola virus BRZ66-39 infected in african green monkey BSC-40 cells at 0.015 uM by IHC staining-based comet tail reduction assay; format: functional, organism-based
Variola virus [25] = assay: Antiviral activity against Variola virus NEP73-175 infected in african green monkey BSC-40 cells at 0.015 uM by IHC staining-based comet tail reduction assay; format: functional, organism-based
Monkeypox virus [26] = assay: Antiviral activity against Monkeypox virus 2003-USA-039 infected in african green monkey BSC-40 cells at 0.05 to 0.5 uM by IHC staining-based plaque reduction assay; format: functional, organism-based
Monkeypox virus [27] = assay: Antiviral activity against Monkeypox virus V1979-I-005 infected in african green monkey BSC-40 cells at 0.05 to 0.5 uM by IHC staining-based comet tail reduction assay; format: functional, organism-based
Monkeypox virus [28] = assay: Antiviral activity against Monkeypox virus V77-I-823 infected in african green monkey BSC-40 cells at 0.05 to 0.5 uM by IHC staining-based comet tail reduction assay; format: functional, organism-based
Monkeypox virus [29] = assay: Antiviral activity against Monkeypox virus V81-I-179 infected in african green monkey BSC-40 cells at 0.015 uM by IHC staining-based comet tail reduction assay; format: functional, organism-based
Variola virus [30] = assay: Antiviral activity against Variola virus SOM77-ali infected in african green monkey BSC-40 cells at 0.05 to 0.5 uM by IHC staining-based comet tail reduction assay; format: functional, organism-based
Variola virus [31] = assay: Antiviral activity against Variola virus NEP73-175 infected in african green monkey BSC-40 cells at 0.005 uM by IHC staining-based comet tail reduction assay; format: functional, organism-based
Variola virus [32] = assay: Antiviral activity against Variola virus SUD47-juba infected in african green monkey BSC-40 cells at 0.05 to 5 uM assessed as reduction in virus-induced cytopathic effect; format: functional, organism-based
Monkeypox virus [33] = assay: Antiviral activity against Monkeypox virus V78-I-3945 infected in african green monkey BSC-40 cells at 0.005 uM uM by IHC staining-based plaque reduction assay; format: functional, organism-based
Monkeypox virus [34] = assay: Antiviral activity against Monkeypox virus V1979-I-005 infected in african green monkey BSC-40 cells assessed as reduction in virus-induced cytopathic effect at 0.005 uM; format: functional, organism-based
Variola virus [35] = assay: Antiviral activity against Variola virus SLN68-258 infected in african green monkey BSC-40 cells at 0.05 to 0.5 uM by IHC staining-based comet tail reduction assay; format: functional, organism-based
Monkeypox virus [36] = assay: Antiviral activity against Monkeypox virus infected in african green monkey vero cells assessed as reduction in virus-induced cytopathic effect; format: functional, organism-based
Monkeypox virus [37] = assay: Antiviral activity against Monkeypox virus 2003-USA-039 infected in african green monkey BSC-40 cells at 0.005 uM uM by IHC staining-based plaque reduction assay; format: functional, organism-based

O=C(NN1C(=O)[C@@H]2[C@@H]3C=C[C@@H]([C@H]4C[C@@H]34)[C@@H]2C1=O)c1ccc(C(F)(F)F)cc1 [TECOVIRIMAT]
EC50 (Monkeypox virus [1]): 30 nM | EC50 (Variola virus [2]): 28 nM | Activity (Variola virus [3]): inactive | Activity (Variola virus [4]): inactive | Activity (Variola virus [5]): inactive | Activity (Variola virus [6]): inactive | Activity (Monkeypox virus [7]): Active | Activity (Variola virus [8]): Active | Activity (Monkeypox virus [9]): Active | Activity (Variola virus [10]): inactive | Activity (Variola virus [11]): Active | Activity (Variola virus [12]): Active | Activity (Variola virus [13]): Active | inhibition (INH) (Variola virus [14]): 50% | Activity (Monkeypox virus [15]): Active | inhibition (INH) (Monkeypox virus [16]): 50% | Activity (Camelpox virus): Active | EC50 (Variola virus [17]): 21 nM | Activity (Monkeypox virus [18]): inactive | Activity (Variola virus [19]): inactive | Activity (Variola virus [20]): Active | Activity (Variola virus [21]): inactive | Activity (Monkeypox virus [22]): Active | Activity (Monkeypox virus [23]): inactive | Activity (Variola virus [24]): Active | Activity (Variola virus [25]): Active | Activity (Monkeypox virus [26]): Active | Activity (Monkeypox virus [27]): Active | Activity (Monkeypox virus [28]): Active | Activity (Monkeypox virus [29]): Active | Activity (Variola virus [30]): Active | Activity (Variola virus [31]): inactive | Activity (Variola virus [32]): Active | Activity (Monkeypox virus [33]): inactive | Activity (Monkeypox virus [34]): inactive | Activity (Variola virus [35]): Active | Activity (Monkeypox virus [36]): Active | Activity (Monkeypox virus [37]): inactive
